The test system of data set [1] is HeLa cells. As to the kind of experiment: NBD-Van staining of aggregates on HeLa cells, confocal. In kind it is cell-based. As to conditions: NBD-Van (6 μM) alone.
Data set [2] relates to HeLa cells. The data set can be described thus: MTT cell viability, HeLa. The class given is cell-based.
The nature of data set [3]: aggregation of 1 by UV absorption change of the supernatant. The note with it: over time, Figure S3, varying [Van]0. The class given is physicochemical.
Data set [4] is described as follows: isothermal titration calorimetry. The class given is binding. The note with it: ITC of 2 with Van, 25 °C, Figure S6. A general note: ITC needs no label: the signal is the heat of the interaction.

Where a SMILES comes first, the peptide text is derived from it. [ ]: non-standard residue; d: D form.

On to “7-nitrobenzofurazan-derivatized vancomycin [NBD-Van]”, for which the “fluorescent aggregates with HeLa cells” value in data set [1] is on record as “few aggregates on the cells”.

For the compound `CN[C@H](CC(C)C)C(=O)N[C@H]1C(=O)N[C@@H](CC(N)=O)C(=O)N[C@H]2C(=O)N[C@H]3C(=O)N[C@H](C(=O)N[C@H](C(=O)O)c4cc(O)cc(O)c4-c4cc3ccc4O)[C@H](O)c3ccc(c(Cl)c3)Oc3cc2cc(c3O[C@@H]2O[C@H](CO)[C@@H](O)[C@H](O)[C@H]2O[C@H]2C[C@](C)(N)[C@H](O)[C@H](C)O2)Oc2ccc(cc2Cl)[C@H]1O` [Van, vancomycin, reference compound], the cytotoxicity entry in data set [2] (alone, concentration as high as 500 μM, MTT) is reported as “innocuous”. In addition, in data set [3], the “amount of Van in the aggregates” value is on record as “decreases with time”.

Regarding `CC(=O)N[C@@H](CCCCN)C(=O)NCC(=O)NCC(=O)N[C@H](C)C(=O)N[C@H](C)C(=O)O` [compound 2] (Ac-KGG[dA][dA]-OH), the inhibition of proliferation entry is given as “scarcely inhibits” in data set [2] (with addition of Van at 500 μM) and “scarcely inhibits” in data set [2] (without addition of Van, at 500 μM). The compound further displayed a Kd in data set [4] of 135 µM. The binding ratio n in data set [4] is 1.

By Kd is commonly meant the constant that tells how readily two partners part at equilibrium. Low readings indicate higher affinity, high ones lower affinity.
